Tests used:
[1] = system: anti-DNA autoantibodies of lupus; details: cited from earlier work
[2] = system: splenic T cells of pre-nephritic SNF1 mice; details: cited from earlier work
SNF1 mice [3] = experiment: Short-term tolerance experiments: grading of lupus nephritis at sacrifice; type: in vivo, mouse; details: short-term batch, at sacrifice two weeks after last injection
Protocol: Short-term experiments were conducted to test the early immunological consequences of tolerance therapy. Twelve week old SNF1 mice were injected once a week for four weeks with either a saline solution or a peptide solution comprising saline and 300 micrograms of one of the above described peptides. Mice were sacrificed at two weeks after the last injection. Presence of autoimmune T and B cells was analyzed and renal lesions were graded.

B cells [4] = experiment: Helper assay: B cells from peptide-injected mice co-cultured with CD4+ T cells from unmanipulated SNF1 mice; type: cell-based, mouse
Excerpt: (§1) Levels of IgG class autoantibodies specific for single-stranded DNA (ssDNA), double-stranded DNA (dsDNA), histones, and nucleosomes (i.e. histone-DNA complexes), in culture supernatants or serum, were estimated using an enzyme-linked immunosorbent assay (ELISA). Anti-DNA mAbs 564 and 205 were used to generate standard curves as previously described (Mohan et al., 1993, J. Exp. Med. 177:1367; Kaliyaperumal et al., 1996, J. Exp. Med. 183:2459; Mohan et al., 1995, J. Immunol. 154:1470; Adams et al., 1991, Proc. Natl. Acad. Sci. USA 88:11271). Sera were diluted 1:400 and heat-inactivated before use according to standard procedures. Sera from normal SWR mice were used as the negative control. Total polyclonal IgG levels were also measured by ELISA as previously described (Mohan et al., 1993, J. Exp. Med. 177:1367; Mohan et al., 1995, J. Immunol. 154:1470; Adams et al., 1991, Proc. Natl. Acad. Sci. USA 88:11271).
(§2) T-cells from peptide-treated mice used in the short-term experiments were co-cultured with splenic B cells from unmanipulated mice. Conversely, T cells from unmanipulated SNF1 mice (i.e. control mice) were co-cultured with splenic B cells from tolerized (i.e. peptide-injected) mice. Each of the cell types was seeded in 24-well plates at an initial concentration of 2.5×10^6 cells per well. Cultures were maintained for 7 days, as previously described (Datta et al., 1987, J. Exp. Med. 165:1252; Sainis and Datta, 1988, J. Immunol. 140:2215). B cells from unmanipulated or tolerized animals were cultured alone to measure baseline autoantibody production. Culture supernatants were collected, freeze-thawed, and assayed by ELISA for antibodies against ssDNA, dsDNA, histones and nucleosomes. For studies involving stimulation of B cells by soluble CD40 ligand, CD40L-CD8 fusion protein (Wortis et al., 1995, Proc. Natl. Acad. Sci. USA 92:3348) was added to either the co-culture wells or the wells with B cells alone and maintained in the medium for the entire 7-day culture period.

HLA-DR = details: cited from earlier work
B cells [5] = experiment: Stimulation of purified B cells from peptide-injected mice (anti-Ig (Fab')2, rIL-4, CD40L, LPS); type: cell-based, mouse
Excerpt: as §1, §2

SNF1 mice [6] = experiment: Brief therapy with nucleosomal histone peptides (long-term experiments): incidence of severe nephritis; type: in vivo, mouse
Protocol: (§3) Long-term experiments used 12 week-old, autoimmune, but pre-nephritic SNF1 female mice. Nine mice per peptide test group were injected intravenously with either a saline (solution) or a peptide solution comprising saline and 300 micrograms of one of H2B10-33, H416-39, and H471-94. Each mouse received three subsequent injections of either the saline solution or one of the peptide solutions at two-week intervals. The mice were monitored weekly for proteinuria using an Albustix kit (VWR Scientific, Chicago, Ill.), and sacrificed upon the development of persistent proteinuria. Persistent protenuria was identified as an amount of protein in urine that is equivalent to or greater than 300 milligrams per deciliter, and is a primary indication of severe kidney disease and damage associated with nephritis. Sera were collected from each mouse and the IgG anti-nuclear autoantibodies determined. Blood urea nitrogen (BUN) was measured by Azostix (Miles, Ekhart, Ind.). Immune complex deposition and glomerulonephritis in the kidney were detected by staining with Hematoxylin and Eosin and anti-mouse Ig. These procedures were carried out as previously described (Mohan et al., 1993, J. Exp. Med. 177:1367; Mohan et al., 1995, J. Immunol. 154:1470; Eastcott et al., 1983, J. Immunol. 131:2232; Adams et al., 1991, Proc. Natl. Acad. Sci. USA 88:11271; Kalled et al., 1998, J. Immunol. 160:2158; Gaynor et al., 1997, Proc. Natl. Acad. Sci. USA 94:1955).

SNF1 mice [7] = experiment: IgG anti-nuclear autoantibody and total IgG levels in sera of peptide-injected mice (ELISA); type: in vivo, mouse; details: sera 1:400
Protocol: as §3, §1

SNF1 mice [8] = experiment: Chronic therapy of established glomerulonephritis with nucleosomal peptides; type: in vivo, mouse; details: for survival: by 26 months age; for mice alive: two months after start of treatment (all controls dead), 300 micrograms i.p. monthly, 18-month old mice
Protocol: Six mice per group were injected intraperitoneally once each month with either a saline solution or a peptide solution comprising saline and 300 micrograms of one of the identified peptides. The endpoint of these experiments was the development of moribund state due to renal failure.

CD4+ T cells = experiment: Helper assay: CD4+ T cells from peptide-injected mice co-cultured with B cells from unmanipulated SNF1 mice; type: cell-based, mouse; details: for reduction of anti-ssDNA antibody production relative to control group / reduction of anti-dsDNA antibody production compared with control group: T cells from treated mice + B cells from unmanipulated mice; for reduction of anti-dsDNA antibody production compared with control group: 7 days; for increase in help for anti-dsDNA antibody production following addition of rIL-2: rIL-2 added at beginning of 7-day culture
Excerpt: as §1, §2

[9] = at 28 weeks of age, 300 micrograms i.v., four injections at two-week intervals from 12 weeks
[10] = at 36-38 weeks of age, control 88.8%
[11] = at 36 weeks of age, control 26±3.2
[12] = at the start of treatment (12 weeks), control 5.5±0.3
[13] = rIL-2 added, not significant relative to control

| Substance | production of anti-nucleosome antibodies relative to control group (B cells [4]) | binding to HLA-DR (HLA-DR) | antibody production by B cells stimulated with anti-Ig (Fab')2 in presence or absence of rIL-4 (B cells [5]) | incidence of severe nephritis (SNF1 mice [6]; [9]) | incidence of severe nephritis (SNF1 mice [6]; [10]) [%] | serum anti-dsDNA antibody level (SNF1 mice [7]; [11]) [units] | serum anti-dsDNA antibody level (SNF1 mice [7]; [12]) [units] | survival (SNF1 mice [8]) | mice alive (SNF1 mice [8]) | reduction of anti-ssDNA antibody production relative to control group (CD4+ T cells) | reduction of anti-dsDNA antibody production compared with control group (CD4+ T cells) | increase in help for anti-dsDNA antibody production following addition of rIL-2 (CD4+ T cells) | other results |
| --- | --- | --- | --- | --- | --- | --- | --- | --- | --- | --- | --- | --- | --- |
| H385-102: epitope in nucleosomal core histone H3, amino acid positions 85-102 (QSSAVMALQEACEAYLVG; UniProt P68431 86-103, looked up, fragment) | – | – | – | – | – | – | – | – | – | – | – | – | binding by anti-DNA autoantibodies [1]: also bound by spontaneously arising anti-DNA autoantibodies of lupus; response of splenic T cells [2]: spontaneously responded |
| H416-39: nucleosomal histone peptide of histone 4 protein (H4), amino acid positions 16-39 | reduced by three fold | have actually been shown to bind HLA-DR | did not respond by increasing antibody production | did not develop disease | 11.1 | 13.0±4.0 | 9.0±2.1 | all of the H416-39 group mice remained alive | none of the mice in H416-39 group had died | approximately 55% | approximately 50% | 35% | Percent Incidence, Grading of Lupus Nephritis 0 (SNF1 mice [3]): 33.3; Percent Incidence, Grading of Lupus Nephritis 1+ (SNF1 mice [3]): 66.6; ability of B cells to produce IgG autoantibodies in presence of T helper cells (B cells [4]): diminished levels of all autoantibodies; reduction of anti-histone antibody production relative to control group (B cells [4]): approximately 4 fold; level of anti-dsDNA antibodies produced by B cells (B cells [4]; control 160±18.5): 45±10.1 units per deciliter; production of anti-ssDNA antibodies by B cells (B cells [4]; control 170±10.9 units per deciliter): 60±7.9 units; antibody production by B cells with addition of CD40L and rIL-4 (B cells [5]): did not produce significant amounts of antibodies; incidence of severe nephritis (SNF1 mice [6]; at 54 weeks of age): 55.5%; animals exhibiting a reduction in proteinuria levels (SNF1 mice [8]; during the course of the experiment): 66.6%; proteinuria level after reduction (SNF1 mice [8]; reduced from 300-1000 milligrams per deciliter): less than 100 milligrams per deciliter; increase in anti-nucleosome antibodies following addition of rIL-2 (CD4+ T cells; [13]): 20%; increase in anti-ssDNA antibodies following addition of rIL-2 (CD4+ T cells; [13]): 30% |
| H471-94: histone 4 protein (H4) amino acids 71-94 | remained significantly low | have actually been shown to bind HLA-DR | could be stimulated to produce autoantibodies at levels similar to those of the control mice | 33.3% | 33.3 | 17.1±2.7 | 5.4±1.1 | all of the H471-94 group mice had succumbed to renal disease | 66.6% | not significant | approximately 50% | did not exhibit any increase | Percent Incidence, Grading of Lupus Nephritis 2+ (SNF1 mice [3]): 66.6; Percent Incidence, Grading of Lupus Nephritis 3+ (SNF1 mice [3]): 33.3; production of anti-histone antibodies relative to control group (B cells [4]): remained significantly low |

Source: patent publication US6468537B1, “Localization of major peptide autoepitopes for nucleosome specific T cells of systemic lupus erythematosus” (The Board of Trustees of Northwestern University, priority 1999, dated 2002)
